Experiments:
RBL-2H3 rat mast cells = assay: IgE/FcεRI receptor mediated leukotriene C4 release, RBL-2H3 mast cells; assay type: cell-based; settings: RBL-2H3, IgE/DNP-BSA challenge, 30 min pre-incubation, 1-100 μM, N = 3-4, read-out: EC50 (mean ± SEM), inhibition of leukotriene C4 release
Protocol: Mast Cell Cultures. RBL-2H3 mast cells were a gift from Dr. Reuben P. Siraganian (Laboratory of Microbiology and Immunology, National Institute of Dental Research, National Institute of Health). The cells were maintained as monolayer cultures in 75- or 150-cm^2 flask in Eagle's essential medium supplemented with 20% fetal calf serum. Human fetal livers (16 to 21 weeks of gestational age) were obtained from prostaglandin-induced human abortuses. Subsequently, single cell suspensions were prepared and mononuclear cells were isolated by centrifugation on Ficoll-Hypaque gradients as described (Malaviya, R., et al., (1999) J Biol Chem, 274, 27028-27038). Isolated cells were cultured for 8 weeks in the presence of 100 ng/ml rhSCF, 2 ng/ml rhIL-4 (Malaviya, R., et al., (1999) J Biol Chem, 274, 27028-27038; Xia, H. Z., et al., (1997) J Immunol, 159, 2911-2921). Culture medium was replaced with fresh medium once a week for the first 2 weeks and twice a week thereafter. All human tissue specimens were used following the guidelines of the Parker Hughes Institute Institutional Review Board on the Use of Human Subjects in Research for secondary use of pathologic or surgical tissue. At the end of the 8 weeks the fetal liver derived human mast cell culture contained 70-90 percent mast cells, based on toluidine blue and tryptase staining (Xia, H. Z., et al., (1997) J Immunol, 159, 2911-2921).
Stimulation of Mast Cells. RBL-2H3 rat mast were sensitized with monoclonal anti-DNP IgE antibody (0.24 mg/ml) for 1 h at 37° C. in a 48-well tissue culture plate. Unbound IgE was removed by washing the cells with PIPES-buffered saline. After washing, PIPES-buffered saline containing 1 mM calcium chloride was added to the monolayers of the RBL-2H3 cells. The cells were challenged with 20 ng/ml DNP-BSA for 30 min at 37° C. The plate was centrifuged at 200 g for 10 min at 4° C. Supernatants were removed and saved. Fetal liver-derived human mast cells were resuspended in culture medium at a cell density of 5×10^6/ml and sensitized with human IgE (150 μg/ml) for 3 h at 4° C. After sensitization the cells were washed with tyrode buffer containing 1 mM calcium and 1 mM magnesium and challenged with mouse monoclonal anti-human IgE (40 μg/ml) for 30 min at 37° C. To study the effect of test drugs, RBL-2H3 rat mast cells or human mast cells were incubated with the drugs at the indicated concentrations or vehicle for 30 min prior to antigen challenge.
Mediator Release Assay. Leukotriene C4 levels were estimated in cell free supernatants of mast cells by immunoassay (Malaviya, R. and Abraham, S. N., (1995) Methods Enzymol, 253, 27-43).
Mast cells release large amounts of leukotrienes upon IgE receptor ligation. Because of the reported ability of LFM as a mast cell inhibitor, we utilized 13 analogues of LFM (Table 1) and examined their effect on IgE/FcεERI receptor mediated mast cell leukotriene C4 release. RBL-2H3 cells, a mucosal mast cell line, were treated with 5 different concentrations of the compounds ranging from 1 μM to 100 μM or vehicle for 30 min before challenge with antigen (DNP-BSA) at 37° C. Leukotriene C4 release was quantitated in the extracellular medium employing a previously described ELISA (Malaviya, R. and Abraham, S. N., (1995) Methods Enzymol, 253, 27-43).

[1] = test system: fetal liver derived human mast cells; assay: IgE/anti-IgE stimulated leukotriene C4 release, fetal liver derived human mast cells; assay type: cell-based; settings: 100 μM, 30 min before anti-IgE challenge
Protocol: FIG. 27: Effect of LFM and LFM-A8 on IgE receptor/Fc epsilon RI-mediated human mast cell leukotriene C4 release. IgE sensitized fetal liver derived human mast cells were stimulated by challenging with anti-IgE. To study the effect of the test compounds, mast cells were incubated with vehicle or 100 μM LFM or LFM-A8 prior to challenge with anti-IgE. Leukotriene C4 levels were measured in cell-free supernatants by ELISA. Vehicle treated 10^6 mast cells released 12.5±2.2 ng leukotriene C4. The results are expressed as percent of vehicle-treated controls (N=4). The data points represent the mean±SEM values. *P<0.05 compared to vehicle-treated control, as determined by Student's t test.
Mast Cell Cultures. RBL-2H3 mast cells were a gift from Dr. Reuben P. Siraganian (Laboratory of Microbiology and Immunology, National Institute of Dental Research, National Institute of Health). […]
We next sought to determine the effect of LFM-A8 on IgE/FcεRI-mediated human mast cell leukotriene C4 release and compare its potency with that of LFM. […] The Fc[…] receptors of fetal liver-derived human mast cells were crosslinked with anti-IgE and the resulting mast cell leukotriene C4 release was quantitated by ELISA (Malaviya, R. and Abraham, S. N., (1995) Methods Enzymol, 253, 27-43).

CC(O)=C(C#N)C(=O)Nc1cccc(C(F)(F)F)c1 [LFM-A8, α-Cyano-β-hydroxy-β-methyl-N-[3-(trifluoromethyl)phenyl]-propenamide]
EC50 (RBL-2H3 rat mast cells): 28 ± 1 µM | leukotriene C4 release from IgE/anti-IgE-stimulated human mast cells [1]: significantly inhibited

Source: patent publication US6753348B2, “BTK inhibitors and methods for their identification and use” (Parker Hughes Institute, priority 1998, dated 2004)
